Here are results for one compound from paper PMC6039096 (Science translational medicine, 2017).

One test has as its target T1, EZH1 (Homo sapiens, UniProt Q92800).
T1 sequence (Q92800 1-747): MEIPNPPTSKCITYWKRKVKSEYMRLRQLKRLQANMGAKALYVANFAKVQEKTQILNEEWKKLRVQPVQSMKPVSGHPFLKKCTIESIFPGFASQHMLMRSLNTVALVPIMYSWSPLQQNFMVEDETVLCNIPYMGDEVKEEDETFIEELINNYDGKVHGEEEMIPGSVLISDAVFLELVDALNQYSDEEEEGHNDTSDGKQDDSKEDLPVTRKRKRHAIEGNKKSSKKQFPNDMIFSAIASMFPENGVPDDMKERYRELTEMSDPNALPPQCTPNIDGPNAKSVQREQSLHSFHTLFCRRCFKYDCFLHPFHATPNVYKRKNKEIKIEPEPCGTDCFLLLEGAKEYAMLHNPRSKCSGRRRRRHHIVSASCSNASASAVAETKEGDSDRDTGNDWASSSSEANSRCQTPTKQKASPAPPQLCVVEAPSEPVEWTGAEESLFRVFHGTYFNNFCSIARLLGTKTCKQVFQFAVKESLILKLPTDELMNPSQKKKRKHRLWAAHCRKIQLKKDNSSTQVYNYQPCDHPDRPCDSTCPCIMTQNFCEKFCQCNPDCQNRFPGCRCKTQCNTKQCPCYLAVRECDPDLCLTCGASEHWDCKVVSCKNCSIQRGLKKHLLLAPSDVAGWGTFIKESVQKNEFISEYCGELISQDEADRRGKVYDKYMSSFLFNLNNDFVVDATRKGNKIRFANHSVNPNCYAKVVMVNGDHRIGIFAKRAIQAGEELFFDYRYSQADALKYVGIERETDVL
Nature of the test: biochemical inhibition assay with recombinant EZH1.

A further test concerns the target EZH2 (Homo sapiens, UniProt Q15910). In words: biochemical inhibition assay with recombinant EZH2.

pKi: −log10 of the molar value.

Chain of EZH2 (Q15910 whole entry): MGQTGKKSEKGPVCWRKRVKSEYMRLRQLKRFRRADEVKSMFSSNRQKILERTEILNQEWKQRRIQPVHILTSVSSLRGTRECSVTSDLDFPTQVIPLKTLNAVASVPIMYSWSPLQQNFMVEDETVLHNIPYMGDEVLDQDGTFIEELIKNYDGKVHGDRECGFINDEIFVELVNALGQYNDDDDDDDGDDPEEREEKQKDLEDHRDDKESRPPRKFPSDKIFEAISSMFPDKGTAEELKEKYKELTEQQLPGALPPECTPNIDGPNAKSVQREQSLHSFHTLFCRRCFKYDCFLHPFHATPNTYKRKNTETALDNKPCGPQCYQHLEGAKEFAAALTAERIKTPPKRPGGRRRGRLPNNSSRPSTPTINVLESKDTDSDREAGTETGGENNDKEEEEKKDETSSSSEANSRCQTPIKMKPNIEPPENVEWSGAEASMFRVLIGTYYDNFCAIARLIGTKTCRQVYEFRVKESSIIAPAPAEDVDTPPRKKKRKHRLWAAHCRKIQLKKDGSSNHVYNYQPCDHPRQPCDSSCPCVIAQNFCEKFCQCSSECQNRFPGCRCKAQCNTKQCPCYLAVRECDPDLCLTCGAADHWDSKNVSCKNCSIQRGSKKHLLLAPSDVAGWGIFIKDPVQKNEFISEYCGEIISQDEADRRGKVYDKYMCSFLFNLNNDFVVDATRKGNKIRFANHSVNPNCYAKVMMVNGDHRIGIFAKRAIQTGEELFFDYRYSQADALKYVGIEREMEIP

One may read the pKi as the negative decadic logarithm of the Ki, by convention in mol/L. Regarding `CCCc1cc(C)[nH]c(=O)c1CNC(=O)c1cc(-c2ccc(N3CCN(C)CC3)nc2)nc2c1cnn2C(C)C` [JQ-EZ-05], the pKi is 7.58 on EZH1 and 8.66 on EZH2.
